pIC50: −log10 of the molar value.
Legend:
[1] = system: Facial nerve palsy model mice; assay: facial nerve palsy model, paralysis scores; format: in vivo, ICR mouse; details: 10 mg/kg every day from an hour before the operation
Method: A facial nerve trunk (3 mm) of a rodent (ICR mouse; 6 to 8 weeks old) was extracted and compressed using a Mosquito forceps with a width of 1 mm for 30 seconds. Facial nerve palsy model mice were thus produced. Compound 4 (10 mg/kg) was administered every day from an hour before the operation (day 0), and paralysis scores relating to nictitation (“no eye-opening” to “cured”), a nose (“extended” to “cured”), and whiskers (“no movement” to “cured”) were evaluated according to four levels. […] In FIG. 9A, “Solvent” indicates the results from adding no compound.

cyclin D1 [2] = assay: Western blotting of cyclin D1 expression in HEK293 cells over time; format: cell-based; details: treated over time
Method: HEK293 cells were treated with Compound 4 or 10 over time, and the expression level of cyclin D1 was examined through Western blotting.

cyclin D1 [3] = assay: Western blotting of cyclin D1 expression in cultured mouse neural stem cells; format: cell-based; details: relative to control
Method: Mouse neural stem cells were treated with Compound 4, 6, or 10, and the expression level of cyclin D1, which positively controls cell proliferation, was examined through Western blotting. FIGS. 4A and 4B show the results. In FIGS. 4A and 4B, “Control” indicates the results from adding no compounds, and “Solvent” indicates dimethyl sulfoxide (DMSO).

DYRK1A [4] = biological target: T1, DYRK1A (Homo sapiens, UniProt Q13627); assay: in-vitro kinase assay against DYRK1A; format: biochemical; details: for pIC50: DYRK peptide as substrate, 10 μM ATP
Method: The inhibitory activity of Compounds 4 and 10 against DYRK1A was examined through in-vitro kinase assay (in-vitro kinase analysis).
The inhibitory activity of Compounds 4 and 10 against DYRK1A was examined in the presence of DYRK1A protein using a DYRK peptide as a substrate under the condition of 10 μM ATP.

DYRK1A [5] = biological target: T1, DYRK1A; assay: Western blotting of tau protein phosphorylation (threonine 212) in cultured cells expressing tau protein and DYRK1A protein; format: cell-based; details: 0.3 μM, 1 μM, 3 μM, or 10 μM; antibody to phosphorylated threonine 212 of tau
Method: Tau protein, which is a substrate of a target kinase, was overexpressed in cells in the presence of Compound 4 or 10 at a concentration of 0.3 μM, 1 μM, 3 μM, or 10 μM, and the inhibitory activity of Compounds 4 and 10 was examined using the phosphorylation of the tau protein as an index.
FIG. 2 is an example of the result of Western blotting analysis of cultured cells in which the expression of both tau protein and DYRK1A protein was induced in the presence of Compound 4 or 10 at a concentration of 0.3 μM, 1 μM, 3 μM, or 10 μM, using an antibody that specifically recognizes the phosphorylated threonine residue at 212-position of tau protein was used to analyze.

Down syndrome model mice = assay: learning and memory tests (Y maze, Barnes maze, fear conditioning) after prenatal administration; format: in vivo, mouse; details: 10 mg/kg oral once a day to pregnant mice from tenth day of fetal life until birth; tested at 8 weeks
Method: Compound 4 (10 mg/kg) or a solvent was orally administered to pregnant mice carrying Down syndrome model mice once a day from the tenth day of fetal life until birth. After birth, at the age of 8 weeks, three types of tests (A. Y maze test for spontaneous alteration behavior, B. Barnes maze test for spatial memory, and C. fear conditioning test) were performed successively. FIGS. 8A to 8C show the results. In FIGS. 8A to 8C, “Solvent” indicates the results from adding no compound.

[6] = system: fibroblasts derived from human skin; assay: flow cytometry cell cycle analysis of fibroblasts derived from human skin; format: cell-based; details: 48 hours treatment
Method: Next, fibroblasts derived from human skin were treated with a solvent or Compound 4 for 48 hours, and the cell cycle was analyzed through flow cytometry. […] It is considered that this is because Compound 4 stabilized cyclin D1 and thus stimulated the progression of the cell cycle from the G1 phase to the subsequent S phase and G2/M phase.

[7] = system: neural stem cells isolated Down syndrome model mice (Ts1Cje); assay: proliferation (BrdU-positive ratio) of neural stem cells from Down syndrome model mice; format: cell-based, mouse; details: Ts1Cje versus wild-type
Method: Neural stem cells were prepared from wild-type mice and Down syndrome model mice (Ts1Cje: the same applies hereinafter), and the effect of Compound 4 on the proliferation of neural stem cells isolated Down syndrome model mice was examined. […] In FIG. 6, “Solvent” indicates the results from no adding compound.

[8] = system: neural stem cells present in the dentate gyrus of the hippocampus; assay: neurogenesis in the dentate gyrus of the hippocampus after 10-day administration; format: in vivo, rodent; details: versus solvent administered group
Method: After 10-day long administration of Compound 4 to a rodent, BrdU was administered thereto, and the number of proliferating cells was quantitatively evaluated. […] In FIGS. 5B and 5C, “Solvent” indicates the results from adding no compound. FIG. 5A is a representative images of thin sections of the dentate gyrus of the hippocampus, and the image of Dapi staining (nucleus staining), the image of doublecortin (DCX) staining, and the image of BrdU staining are shown in the order from top to bottom. FIG. 5B is an example of a graph showing the number of BrdU-positive cells in the dentate gyrus of the hippocampus. FIG. 5C is an example of a graph showing the number of immature neurons in the dentate gyrus of the hippocampus as a relative value determined based on the result from the solvent sample taken as 1.

[9] = system: Down syndrome model mice (fetus); assay: thickness of the cerebral cortex of Down syndrome model fetuses after oral administration to pregnant mice; format: in vivo, mouse; details: tenth to fifteenth day of fetal life
Method: Moreover, Compound 4 was orally administered to pregnant mice carrying Down syndrome model mice from the tenth day to fifteenth day of fetal life, and the thickness of the cerebral cortex was measured at the fifteenth day of fetal life. […] In FIGS. 7A and 7B, “Solvent” indicates the results from adding no compound.

Mouse neural stem cells = assay: BrdU uptake in cultured mouse neural stem cells (Arrayscan); format: cell-based; details: for incorporation of BrdU into neural stem cells (ratio of BrdU-positive cells relative to control): 1.25 μM, 2.5 μM, or 5 μM
Method: Mouse neural stem cells were treated with Compound 4 or 10, and then neural stem cell proliferating activity was examined using, as an index, uptake of 5-bromo-2′-deoxyuridine (BrdU), which is a nucleoside analog to be used as a proliferation index.
Specifically, isolated neural stem cells were cultured in the presence of BrdU and Compound 4 or 10 at a concentration of 1.25 μM, 2.5 μM, or 5 μM, so that proliferating cells were labeled. After the cells were fixed, BrdU was detected by an anti-BrdU antibody, and the ratio of proliferating cells that had incorporated the BrdU was quantitatively analyzed using Arrayscan (Thermo Scientific). […] In FIG. 3, “Control” indicates the results from adding no compounds, and “Solvent” indicates dimethyl sulfoxide (DMSO).

[10] = system: zebrafish spinal cord injury; assay: zebrafish spinal cord injury model, migration distance by behavior analysis; format: in vivo; details: in breeding water, sixth to eighth day after fertilization
From the text: On the fifth day after fertilization, the zebrafish spinal cord was injured using an ophthalmic scalpel, and the zebrafish was bred in breeding water containing Compound 4 until the eighth day after fertilization.

[11] = system: Down syndrome model mice (Ts1Cje); assay: neurogenesis in the dentate gyrus of the hippocampus of Down syndrome model mice; format: in vivo, mouse; details: 8-week old Down syndrome model mice
Method: First, a solvent or Compound 4 was administered to 8-week old wild-type mice and 8-week old Down syndrome model mice, and the effect on neurogenesis in the dentate gyrus of the hippocampus was examined.

SMILES	melting point	pIC50 (DYRK1A [4])	inhibitory effect against the phosphorylation of tau protein (DYRK1A [5])	protein level of cyclin D1 (cyclin D1 [2])	expression level of cyclin D1 (cyclin D1 [3])	incorporation of BrdU into neural stem cells (ratio of BrdU-positive cells relative to control) (Mouse neural stem cells)	further results
c1ccc2c(-c3ccc4[nH]ncc4c3)cncc2c1 [Compound 6]			showed the same tendency as Compounds 4 and 10		significantly high		inhibitory activity against DYRK1A (DYRK1A [4]; same experiment as Compounds 4 and 10): lower than that of Compounds 4 and 10; proliferation of cultured neural stem cells (Mouse neural stem cells; 2.5 μM and 5 μM): promoted the proliferation of cultured neural stem cells
c1cncc(Nc2cccc3ncccc23)c1 [Compound 8, 5-(3-Pyridylamino)quinoline]	180 °C (dec.)						

Continued, in another order:

melting point	pIC50 (DYRK1A [4])	inhibitory effect against the phosphorylation of tau protein (DYRK1A [5])	SMILES	protein level of cyclin D1 (cyclin D1 [2])	expression level of cyclin D1 (cyclin D1 [3])	incorporation of BrdU into neural stem cells (ratio of BrdU-positive cells relative to control) (Mouse neural stem cells)	further results
255 °C (dec.)			c1cc(-c2ccc3[nH]ncc3c2)c2cccnc2c1 [Compound 1, 5-(5-Quinolyl)indazole]				
	7.25	exhibited a high inhibitory effect	c1cncc(-c2ccc3[nH]ncc3c2)c1 [Compound 4]	increased (i.e. the cyclin D1 was stabilized) in a treatment time dependent manner	significantly high	increased the amount of incorporation of BrdU	paralysis scores (nictitation, nose, whiskers) [1]: tended to promote recovery; cognitive function (Y maze, Barnes maze, fear conditioning tests) (Down syndrome model mice): improved the cognition function; ratio of cell in the G2/M phase of the cell cycle [6]: increased; ratio of cells in the G1 phase of the cell cycle [6]: decreased; ratio of BrdU-positive cells in neural stem cells from Down syndrome model mice [7]: compensated for the reduced proliferation; number of immature neurons in the dentate gyrus of the hippocampus [8]: significantly larger; number of proliferating cells (BrdU-positive) in the dentate gyrus of the hippocampus [8]: significantly larger; thickness of cortical layers [9]: compensated for the cerebral cortex with a reduced thickness; migration distance after spinal cord injury [10]: migration distance was recovered; number of proliferating cells in dentate gyrus of the hippocampus [11]: compensated for the reduced neurogenesis
	7.22	exhibited a high inhibitory effect	c1cnc2ccc(-c3ccncc3)cc2c1 [Compound 10]	increased (i.e. the cyclin D1 was stabilized) in a treatment time dependent manner	significantly high	increased the amount of incorporation of BrdU	

Reference: patent publication US11318126B2, “Composition for activating neurogenesis” (KYOTO UNIVERSITY, priority 2016, dated 2022)
